Measured values published in US7514426B2, “Substituted imidazol[1,5-A][1,2,4]triazolo[1,5-D][1,4]benzodiazepine derivatives” (priority 2004, dated 2009).
Read-outs that look alike come from different tables or passages of the source.

How the values were obtained:
Test in all cases: [3H]flumazenil competition binding, HEK293 cell membranes
[1] = target: T1, human GABA A receptor α1β3γ2 (Homo sapiens, UniProt P14867+P18507)
T1 construct: expressed in transfected cells; host or cells: HEK293
Experimental: (§1) The affinity of compounds at GABA A receptor subtypes was measured by competition for [^3H]flumazenil (85 Ci/mmol; Roche) binding to HEK293 cells expressing rat (stably transfected) or human (transiently transfected) receptors of composition α1β3γ2, α2β3γ2, α3β3γ2 and α5βγ2.
(§2) Cell pellets were suspended in Krebs-tris buffer (4.8 mM KCl, 1.2 mM CaCl2, 1.2 mM MgCl2, 120 mM NaCl, 15 mM Tris; pH 7.5; binding assay buffer), homogenized by polytron for ca. 20 sec on ice and centrifuged for 60 min at 4° C. (50000 g; Sorvall, rotor: SM24=20000 rpm). The cell pellets were resuspended in Krebs-tris buffer and homogenized by polytron for ca. 15 sec on ice. Protein was measured (Bradford method, Bio-Rad) and aliquots of 1 mL were prepared and stored at −80° C.
(§3) Radioligand binding assays were carried out in a volume of 200 μL (96-well plates) which contained 100 μL of cell membranes, [^3H]flumazenil at a concentration of 1 nM for α1, α2, α3 subunits and 0.5 nM for α5 subunits and the test compound in the range of 10^−10-3×10^−6 M. Nonspecific binding was defined by 10^−5 M diazepam and typically represented less than 5% of the total binding. Assays were incubated to equilibrium for 1 hour at 4° C. and harvested onto GF/C uni-filters (Packard) by filtration using a Packard harvester and washing with ice-cold wash buffer (50 mM Tris; pH 7.5). After drying, filter-retained radioactivity was detected by liquid scintillation counting. Ki values were calculated using Excel-Fit (Microsoft) and are the means of two determinations.

[2] = target: T2, human GABA A receptor α2β3γ2 (Homo sapiens, UniProt P18507+P47869)
T2 construct: expressed in transfected cells; host or cells: HEK293
Experimental: as §1, §2, §3

[3] = target: T3, human GABA A receptor α3β3γ2 (Homo sapiens, UniProt P18507+P34903)
T3 construct: expressed in transfected cells; host or cells: HEK293
Experimental: as §1, §2, §3

[4] = target: T4, human GABA A receptor α5βγ2 (Homo sapiens, UniProt P18507+P31644)
T4 construct: expressed in transfected cells; host or cells: HEK293
Experimental: as §1, §2, §3

[5] = human α1β3γ2, transiently transfected HEK293, 1 nM [3H]flumazenil, mean of two determinations, read-out: Ki[nM] hα1
[6] = human α2β3γ2, transiently transfected HEK293, 1 nM [3H]flumazenil, mean of two determinations, read-out: Ki[nM] hα2
[7] = human α3β3γ2, transiently transfected HEK293, 1 nM [3H]flumazenil, mean of two determinations, read-out: Ki[nM] hα3
[8] = human α5βγ2, transiently transfected HEK293, 0.5 nM [3H]flumazenil, mean of two determinations, read-out: Ki[nM] hα5

Structure (SMILES): FCc1ncn2c1Cn1ncnc1-c1cc(Cl)ccc1-2 [Example 1, 3-Chloro-10-fluoromethyl-9H-imidazo[1,5-a][1,2,4]triazolo[1,5-d][1,4]benzodiazepine]
- Ki [1]: 59.1 nM
- Ki [2]: 67 nM
- Ki [3]: 40 nM
- Ki [4]: 9.4 nM

Structure (SMILES): FC(F)c1ncn2c1Cn1ncnc1-c1cc(Cl)ccc1-2 [Example 2, 3-Chloro-10-difluoromethyl-9H-imidazo[1,5-a][1,2,4]triazolo[1,5-d][1,4]benzodiazepine]
- Ki [1]: 52.9 nM
- Ki [2]: 81.3 nM
- Ki [3]: 47.9 nM
- Ki [4]: 5.6 nM

Structure (SMILES): FCc1ncn2c1Cn1ncnc1-c1cc(F)ccc1-2 [Example 3, 3-Fluoro-10-fluoromethyl-9H-imidazo[1,5-a][1,2,4]triazolo[1,5-d][1,4]benzodiazepine]
- Ki [1]: 49.9 nM
- Ki [2]: 25.4 nM
- Ki [3]: 26.2 nM
- Ki [4]: 9.1 nM

Structure (SMILES): Fc1ccc2c(c1)-c1ncnn1Cc1c(C(F)F)ncn1-2 [Example 4, 3-Fluoro-10-difluoromethyl-9H-imidazo[1,5-a][1,2,4]triazolo[1,5-d][1,4]benzodiazepine]
- Ki [1]: 34.4 nM
- Ki [2]: 14.4 nM
- Ki [3]: 15.6 nM
- Ki [4]: 6.8 nM

Structure (SMILES): Fc1ccc2c(c1)-c1ncnn1Cc1c(C(F)(F)F)ncn1-2 [Example 5, 3-Fluoro-10-trifluoromethyl-9H-imidazo[1,5-a][1,2,4]triazolo[1,5-d][1,4]benzodiazepine]
- Ki [1]: 39 nM
- Ki [2]: 23.9 nM
- Ki [3]: 27.7 nM
- Ki [4]: 7 nM

Structure (SMILES): FCc1ncn2c1Cn1ncnc1-c1cc(Br)ccc1-2 [Example 6, 3-Bromo-10-fluoromethyl-9H-imidazo[1,5-a][1,2,4]triazolo[1,5-d][1,4]benzodiazepine]
- Ki [1]: 215 nM
- Ki [2]: 261 nM
- Ki [3]: 108 nM
- Ki [4]: 8.7 nM

Structure (SMILES): FC(F)c1ncn2c1Cn1ncnc1-c1cc(Br)ccc1-2 [Example 7, 3-Bromo-10-difluoromethyl-9H-imidazo[1,5-a][1,2,4]triazolo[1,5-d][1,4]benzodiazepine]
- Ki [1, 5]: 174 nM
- Ki [2, 6]: 185 nM
- Ki [3, 7]: 79.6 nM
- Ki [4, 8]: 4.6 nM

Structure (SMILES): FCc1ncn2c1Cn1ncnc1-c1cc(C3CC3)ccc1-2 [Example 8, 3-Cyclopropyl-10-fluoromethyl-9H-imidazo[1,5-a][1,2,4]triazolo[1,5-d][1,4]benzodiazepine]
- Ki [1]: 272 nM
- Ki [2]: 276 nM
- Ki [3]: 270 nM
- Ki [4]: 14.7 nM

Structure (SMILES): FC(F)c1ncn2c1Cn1ncnc1-c1cc(C3CC3)ccc1-2 [Example 9, 3-Cyclopropyl-10-difluoromethyl-9H-imidazo[1,5-a][1,2,4]triazolo[1,5-d][1,4]benzodiazepine]
- Ki [1, 5]: 216 nM
- Ki [2, 6]: 160 nM
- Ki [3, 7]: 192 nM
- Ki [4]: 13.3 nM

Structure (SMILES): CCc1ccc2c(c1)-c1ncnn1Cc1c(C(F)F)ncn1-2 [Example 10, 10-Difluoromethyl-3-ethyl-9H-imidazo[1,5-a][1,2,4]triazolo[1,5-d][1,4]benzodiazepine]
- Ki [1, 5]: 272 nM
- Ki [2, 6]: 624 nM
- Ki [3, 7]: 480 nM
- Ki [4]: 31.7 nM

Structure (SMILES): FC(F)c1ncn2c1Cn1ncnc1-c1cc(Cc3ccccc3)ccc1-2 [Example 11, 3-Benzyl-10-difluoromethyl-9H-imidazo[1,5-a][1,2,4]triazolo[1,5-d][1,4]benzodiazepine]
- Ki [1, 5]: 455 nM
- Ki [2, 6]: 904 nM
- Ki [3, 7]: 488 nM
- Ki [4]: 26.4 nM

Structure (SMILES): C#Cc1ccc2c(c1)-c1ncnn1Cc1c(C(F)F)ncn1-2 [Example 12, 10-Difluoromethyl-3-ethynyl-9H-imidazo[1,5-a][1,2,4]triazolo[1,5-d][1,4]benzodiazepine]
- Ki [1, 5]: 1460 nM
- Ki [2, 6]: 416 nM
- Ki [3, 7]: 512 nM
- Ki [4]: 16.9 nM

Structure (SMILES): N#Cc1ccc2c(c1)-c1ncnn1Cc1c(C(F)F)ncn1-2 [Example 13, 3-Cyano-10-difluoromethyl-9H-imidazo[1,5-a][1,2,4]triazolo[1,5-d][1,4]benzodiazepine]
- Ki [1]: 246 nM
- Ki [2]: 246 nM
- Ki [3]: 106 nM
- Ki [4]: 16.5 nM

Structure (SMILES): CC(F)(F)c1ncn2c1Cn1ncnc1-c1cc(F)ccc1-2 [Example 14, 10-(1,1-Difluoro-ethyl)-3-fluoro-9H-imidazo[1,5-a][1,2,4]triazolo[1,5-d][1,4]benzodiazepine]
- Ki [1, 5]: 163 nM
- Ki [2]: 98.8 nM
- Ki [3]: 73.5 nM
- Ki [4]: 26.6 nM

Structure (SMILES): CCC(F)(F)c1ncn2c1Cn1ncnc1-c1cc(F)ccc1-2 [Example 15, 10-(1,1-Difluoro-propyl)-3-fluoro-9H-imidazo[1,5-a][1,2,4]triazolo[1,5-d][1,4]benzodiazepine]
- Ki [1]: 15 nM
- Ki [2]: 11.3 nM
- Ki [3]: 8.9 nM
- Ki [4]: 3.2 nM

Structure (SMILES): FC(F)c1ncn2c1Cn1ncnc1-c1ccccc1-2 [Example 16, 10-Difluoromethyl-9H-imidazo[1,5-a][1,2,4]triazolo[1,5-d][1,4]benzodiazepine]
- Ki [1]: 28.3 nM
- Ki [2]: 13.9 nM
- Ki [3]: 10.5 nM
- Ki [4]: 1.6 nM

Structure (SMILES): FC(F)c1ncn2c1Cn1ncnc1-c1cc(N3CCOCC3)ccc1-2 [Example 17, 3-Morpholin-4-yl-10-difluoromethyl-9H-imidazo[1,5-a][1,2,4]triazolo[1,5-d][1,4]benzodiazepine]
- Ki [1, 5]: 1870 nM
- Ki [2, 6]: > 3160 nM
- Ki [3, 7]: > 3160 nM
- Ki [4, 8]: 272 nM

Structure (SMILES): CCC(F)c1ncn2c1Cn1ncnc1-c1cc(Br)ccc1-2 (stereo not drawn) [Example 18, 3-Bromo-10-(1-fluoro-propyl)-9H-imidazo[1,5-a][1,2,4]triazolo[1,5-d][1,4]benzodiazepine]
- Ki [1, 5]: 787 nM
- Ki [2, 6]: 764 nM
- Ki [3, 7]: 650 nM
- Ki [4]: 37.5 nM

Structure (SMILES): CCC(F)(F)c1ncn2c1Cn1ncnc1-c1cc(Br)ccc1-2 [Example 19, 3-Bromo-10-(1,1-difluoro-propyl)-9H-imidazo[1,5-a][1,2,4]triazolo[1,5-d][1,4]benzodiazepine]
- Ki [1]: 32.9 nM
- Ki [2, 6]: 147 nM
- Ki [3]: 77.2 nM
- Ki [4]: 6.4 nM

Structure (SMILES): Cc1nc2n(n1)Cc1c(CF)ncn1-c1ccc(Cl)cc1-2 [Example 20, 3-Chloro-10-fluoromethyl-6-methyl-9H-imidazo[1,5-a][1,2,4]triazolo[1,5-d][1,4]benzodiazepine]
- Ki [1]: 50.1 nM
- Ki [2]: 181 nM
- Ki [3]: 117 nM
- Ki [4]: 2.5 nM

Structure (SMILES): COc1ccc(-c2nc3n(n2)Cc2c(CF)ncn2-c2ccc(Cl)cc2-3)cc1OC [Example 21, 3-Chloro-6-(3,4-dimethoxyphenyl)-10-fluoromethyl-9H-imidazo[1,5-a][1,2,4]triazolo[1,5-d][1,4]benzodiazepine]
- Ki [1, 5]: > 3160 nM
- Ki [2, 6]: > 3160 nM
- Ki [3, 7]: > 3160 nM
- Ki [4, 8]: 152 nM
